Key:
Transthyretin [1] = target: T1, Transthyretin (Homo sapiens, UniProt P02766); test: (§1) Inhibition of recombinant wild-type Transthyretin (unknown origin) expressed in Escherichia coli expression system assessed as acid mediated fibril formation at 1.8 uM preincubated for 2 hrs followed by addition of acetate buffer solution and measured after 72 hrs by UV-vis spectrophotometry relative to control; settings: time 74.0 hrs, values are per cent of control
Transthyretin [2] = target: T1, Transthyretin; test: as §1, with “3.6” for “1.8”; settings: time 74.0 hrs, values are per cent of control
[3] = system: Transthyretin (Homo sapiens), P02766 [V50M]; test: as §1, with “recombinant” for “recombinant wild-type”, “Transthyretin V30M mutant” for “Transthyretin”, “3.6” for “1.8”; settings: time 74.0 hrs, values are per cent of control
[4] = system: Transthyretin (Homo sapiens), P02766 [V50M]; test: as §1, with “recombinant” for “recombinant wild-type”, “Transthyretin V30M mutant” for “Transthyretin”; settings: time 74.0 hrs, values are per cent of control
Transthyretin [5] = target: T1, Transthyretin
Description: Covalent inhibition of urea-induced Transthyretin denaturation in human plasma preincubated for 1 hr followed by urea addition by Western blot analysis

Transthyretin [6] = target: T1, Transthyretin; test: Inhibition of recombinant wild-type Transthyretin (unknown origin) expressed in Escherichia coli expression system assessed as acid mediated fibril formation at 1.8 uM measured after 120 hrs by UV-vis spectrophotometry relative to control
[7] = system: Transthyretin (Homo sapiens), P02766 [V50M]; test: Inhibition of recombinant Transthyretin V30M mutant (unknown origin) assessed as acid mediated fibril formation at 7.2 uM relative to control

`Cc1n[nH]c(C)c1/C=C/c1cc(Br)c(OC(=O)c2c(F)cccc2F)c(Br)c1` showed a response, % of control (Transthyretin [1]) of 1.2%, a response, % of control (Transthyretin [2]) of 0.3% and a response, % of control [3] of 3.5%. The response, % of control [4] was 14.8%, the IC50 (Transthyretin [5]) was 0.57 µM and the inhibition (Transthyretin [6]) was < 5%.

With `Cc1n[nH]c(C)c1/C=C/c1cc(Br)c(OC(=O)c2c(F)cc(F)cc2F)c(Br)c1` the response, % of control (Transthyretin [1]) was 0.8%, the response, % of control (Transthyretin [2]) was 0.3% and the response, % of control [3] was 3%. The response, % of control [4] was 13.8%, the IC50 (Transthyretin [5]) was 0.47 µM and the inhibition (Transthyretin [6]) was < 5%.

Work on `CCC(C)C(=O)Oc1c(Br)cc(/C=C/c2c(C)n[nH]c2C)cc1Br` (stereo unspecified) yielded a response, % of control (Transthyretin [1]) of 2.2%, a response, % of control (Transthyretin [2]) of 0.3% and a response, % of control [3] of 2.9%. For the same compound, the response, % of control [4] was 18%.

`Cc1n[nH]c(C)c1/C=C/c1cc(Br)c(OC(=O)c2ccc(F)cc2)c(Br)c1` showed a response, % of control (Transthyretin [1]) of 5.7%, a response, % of control (Transthyretin [2]) of 0.2% and a response, % of control [3] of 3.9%. For the same compound, the response, % of control [4] was 15.7%, the IC50 (Transthyretin [5]) was 0.45 µM and the inhibition (Transthyretin [6]) was < 5%.

For `Cc1n[nH]c(C)c1/C=C/c1cc(Br)c(O)c(Br)c1`, the response, % of control (Transthyretin [1]) was 17.3%, the response, % of control (Transthyretin [2]) was 9.2% and the response, % of control [3] was 11.1%. It also gave a response, % of control [4] of 41.7% and an inhibition [7] of 39%.

`O=C(O)c1ccc2nc(-c3cc(Cl)cc(Cl)c3)oc2c1` gave a response, % of control (Transthyretin [1]) of 40.9%, a response, % of control (Transthyretin [2]) of 11.1% and a response, % of control [3] of 21%. The response, % of control [4] was 53.8% and the inhibition (Transthyretin [6]) was 46%.

`CCCC(=O)Oc1c(Br)cc(/C=C/c2c(C)n[nH]c2C)cc1Br` was tested, and the response, % of control (Transthyretin [1]) was 2.7%, the response, % of control (Transthyretin [2]) was 0.3% and the response, % of control [3] was 6.6%. It also gave a response, % of control [4] of 23.5%.

Source: ChEMBL document CHEMBL5380798, “Novel Strategy To Inhibit Transthyretin Amyloidosis via the Synergetic Effect of Chemoselective Acylation and Noncovalent Inhibitor Release” (J Med Chem, 2023)
